US20050042291A1, “Diffusion layer modulated solids” (priority 2003, published 2005)
≈ marks a conversion by molar mass, not a printed value. Structures can show the parent of a compound that is named as a salt. Where two headings read alike, the source gives them in different places.

What was measured:
[1] = Intrinsic dissolution rate of co-compressed pellets, fiber optic automated rotating disk dissolution method; format: physicochemical; settings: for Percent dissolved in 60 minutes at pH 6: pH 6 (0.01 M phosphate) with 0.6% SLS
Description: The 0.48 cm ( 3/16 inch) HSS rod was inserted into the die to a distance of 1.9 cm (¾ inch), leaving 0.64 (¼ inch) for placement of 20±1 mg of the drug or drug mixture into the 0.48 cm ( 3/16 inch) diameter hole.
After adding the drug, the punch (or HSS rod) was inserted into the die and the entire die assembly was placed into a 3-bolt holder that was used to hold a 0.64 cm (¼ inch) SS base plate firmly against the powder bed during compression in the die. Compression of the powder was achieved on a Carver press using a stepwise increase in the force up to 4450 newtons (1000 pounds force) (i.e., 255 MPa (37000 psi)) and then a progressive decrease in pressure as described in the following. A force of 1110 newtons (250 pounds force) was applied for approximately 10 seconds and the pressure was removed. This was repeated at 2220 newtons (500 pounds force), 3330 newtons (750 pounds force), and 4450 newtons (1,000 pounds force). The 4450 newtons (1000 pounds force) (i.e., 255 MPa (37000 psi)) was applied again and maintained for 1 minute. The pressure was decreased stepwise by simply lowering the pressure and then holding it at 3330 newtons (750 pounds force) for 10 seconds and repeating this at 2220 newtons (500 pounds force), 1110 newtons (250 pounds force) and, finally, the pressure was removed.
The die and holder was removed from the Carver press and the punch (or HSS rod) was twisted to loosen the rod and to allow the pellet to relax or expand from the backside. After a three minute (minimum) relaxation period, the set-screw on the HSS rod was firmly secured to the die.
The entire punch and die assembly containing the drug pellet with one face of the drug pellet exposed was removed as a unit from the holder and the intrinsic dissolution rate was determined as described below.
The HSS rod in the die containing the drug compact with one face of the drug pellet exposed was attached to an electric motor with a fixed speed of 300 revolutions per minute (rpm). The die was rotated (300 rpm) while the die (containing the drug pellet) was lowered at t=0 into the center of the dissolution vessel consisting of a jacketed 800 mL beaker (Pyrex, No.1000) containing 500 mL of the desired de-gassed (house vacuum, 3 minutes) dissolution medium maintained at 37±0.5° C. The dissolution medium consisted of either dilute HCl (0.01, 0.001 or 0.0001 N HCl) or pH 6, 0.01 M phosphate containing 0.6% SLS (sodium lauryl sulfate). The die was positioned such that the drug compact was approximately 6.4 cm (2.5 inches) from the bottom of the 500 mL dissolution beaker and approximately the same distance from the liquid surface. Continuous monitoring by ultraviolet (UV) spectroscopy was conducted by the fiber optic UV automated dissolution method or samples were taken automatically by the HPLC sampling method as described below.
The Fiber Optic Dissolution System. The fiber optic UV automated dissolution system employed an Ocean Optics PC Model 1000 fiber optic spectrophotometer connected to a 120 mHz Pentium computer. The dissolution process was monitored continuously at 290 nm with the fiber optic probe with 5-10 data points taken per minute. The data was processed automatically with a Visual Basic application program that allowed the data to be collected automatically from the spectrophotometer.
The delavirdine mesylate intrinsic dissolution rate profile was plotted in Excel and the intrinsic dissolution rate was calculated automatically by the program. The dissolution period was usually 15 minutes, but could be as short as approximately 1 minute, or as long as a few hours.
Calculation of the Intrinsic Dissolution Rate.

Solubility = format: physicochemical; settings: water, pH 6, water
[2] = Rat oral bioavailability of tipranavir disodium spray dried powders; format: in vivo; settings: plasma, 20 mg/kg
Description: HPLC analysis of tipranavir in the rat plasma samples following administration of the various tipranavir disodium spray dried powders was conducted using an RP 8 column (Zorbax, DuPont) with a mobile phase consisting of methanolaqueous 0.05 M formate buffer, pH 4 ([…]).
The rat oral bioavailability of tipranavir disodium spray dried powders as well as the parent tipranavir disodium bulk drug were administered by intubation of the powders using a group of 7-8 rats (250-290 g) obtained from Taconic (Germantown, N.Y.). Intubation was achieved using a 10 cm (4 inch) section of Teflon tubing, […], containing a piece of cheese (American, fat free) inserted into the bottom of the tubing. The desired tipranavir disodium powdered bulk drug was placed into the tube and the tube was inserted into the stomach of the rat. The drug was displaced from the Teflon tubing and into the stomach by passing 2 ml of water through the tubing. The dose was 20 mg/kg in all cases.
The blood samples were processed with precipitation of the proteins with acetonitrile followed by centrifugation. The samples were assayed as described above.

Compound: CC(C)Nc1cccnc1N1CCN(C(=O)c2cc3cc(NS(C)(=O)=O)ccc3[nH]2)CC1 [Delavirdine Mesylate, delavirdine mesylate]
- IDR, pH 2 0.01 N HCl ([1]; pH 2 0.01 N HCl, 37° C., 300 rpm, observed): 220 micrograms · cm^−2 · sec^−1
- Percent of pellet dissolved at pH 2 ([1]; pH 2 (0.01 N) HCl, 37° C., dissolution then stops): approximately 60%
- Percent dissolved in 60 minutes at pH 6 ([1]; 20 mg pellet, listed as Delavirdine mesylate alone): approximately 2%
- Percent dissolved in 60 minutes at pH 6 ([1]; 20 mg pellet, listed as pure delavirdine mesylate): less than 1%
- IDR, pH 6 with 0.5% SLS ([1]; pH 6 with 0.5% SLS, 37° C., 300 rpm, observed): 2 micrograms · cm^−2 · sec^−1
- Percent dissolved in less than 10 minutes at pH 6 ([1]; pH 6 with 0.6% SLS, less than 10 minutes, 20 mg pellet): less than 1%

Compound: CCC[C@@]1(CCc2ccccc2)CC(O)=C([C@H](CC)c2cccc(NS(=O)(=O)c3ccc(C(F)(F)F)cn3)c2)C(=O)O1 [tipranavir]
- solubility (Solubility): 5 to 10 µg/mL (≈ 8.3 to 16.6 µM)

Compound: CCC[C@@]1(CCc2ccccc2)CC(O)=C([C@H](CC)c2cccc(NS(=O)(=O)c3ccc(C(F)(F)F)cn3)c2)C(=O)O1 [Tipranavir Disodium bulk drug, tipranavir disodium]
- AUC(0-inf) ([2]; fasted, read-out: AUCInf, fasted): 23400 ng·h/mL
- AUC(0-inf) ([2]; fed, read-out: AUCInf, fed): 45800 ng·h/mL
